In BindingDB's records for doi:10.3109/14756366.2012.680063 (Rhodes University, 2013):
Residues, ends and D or L forms follow the SMILES beside them.

Columns and labels:
[1] = target: T1, Superoxide dismutase [Cu-Zn] (Bovine, UniProt P00442); test: SOD Assay (Kinetic Analysis)
[2] = target: T1, Superoxide dismutase [Cu-Zn]; test: SOD Assay (Fluorimetric Analysis); details: pH 8; 37 °C
Description: SOD activity of the purified samples was determined by the SOD assay kit using (2-(4-iodophenyl)-3-(4nitrophenyl)-5-(2,4-disulphenyl)-2H-tetrazolium, monosodium salt) [WST] which is a colorimetric assay that monitors the rate of inhibition of WST to a water soluble formazan dye.

T1 sequence (P00442 whole entry): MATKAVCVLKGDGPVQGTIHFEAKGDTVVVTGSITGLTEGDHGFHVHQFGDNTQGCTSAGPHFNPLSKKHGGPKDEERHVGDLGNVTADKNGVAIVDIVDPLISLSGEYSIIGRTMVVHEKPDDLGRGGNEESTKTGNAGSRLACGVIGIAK

Structure (SMILES)	Ki [1] [µM]	Kd [2] [µM]
CC[C@H](C)[C@H](NC(=O)[C@H](C)NC(=O)CNC(=O)[C@H](CCCCN)NC(=O)[C@H](CC(N)=O)NC(=O)[C@H](CO)NC(=O)CN)C(=O)N[C@H](C(=O)NCC(=O)N[C@@H](CC(C)C)C(=O)N[C@@H](CCSC)C(=O)N[C@H](C(=O)NCC(=O)O)C(C)C)[C@@H](C)CC [Aβ (25-37)] (H-GSNKGAIIGLMVG-OH)	14.4	9.38
CC[C@H](C)[C@H](NC(=O)[C@H](C)NC(=O)CN)C(=O)N[C@H](C(=O)NCC(=O)O)[C@@H](C)CC [Aβ (29-33)] (H-GAIIG-OH)	13.2	15.7
